# Legend:
# [1] = test system: human bladder carcinoma cell line RT4; test: Bladder carcinoma cell line growth inhibition assay, RT4; assay type: cell-based; settings: 72 h, 3 days incubation, CellTiter-Glo 2.0
# Procedure: In this assay, the growth inhibitory activity of Compound (1) in human bladder carcinoma cell lines RT4, RT112/84, and UM-UC-3 was measured. RT4 and RT112/84 cells were maintained in a RPMI-1640 (FUJIFILM Wako Pure Chemical Corporation, 189-02025) medium containing 10% fetal bovine serum (FBS: SIGMA Life Science, 172012-500ML), and penicillin and streptomycin (FUJIFILM Wako Pure Chemical Corporation, 168-23191) in a 5% CO2 incubator (37° C.). UM-UC-3 cells were maintained in an E-MEM (FUJIFILM Wako Pure Chemical Corporation, 051-07615) medium containing 10% FBS, 1 mM Sodium Pyruvate (FUJIFILM Wako Pure Chemical Corporation, 190-14881), and penicillin and streptomycin in a 5% CO2 incubator (37° C.). To each well of a 96 well plate (Coming, 3904), 90 μL of each cell suspension adjusted to a concentration of 5.55×10^3 cells/mL (RT4 or UM-UC-3) or 3.33×10^4 cells/mL (RT112/84) with the culture medium was added, and the cells were incubated overnight in a 5% CO2 incubator (37° C.). On the next day, 10 μL of Compound (1) in three-fold dilution series suspended in the culture medium was added to each well, and the resultant was incubated for 3 days in a 5% CO2incubator (37° C.). Then, cell viability was determined by CellTiter-Glo® 2.0 Assay (Promega Corporation, G9243) with ARVO-X4 Multimode Plate Reader (Perkin-Elmer, Wellesley, MA). […]
# [2] = test system: human synovial sarcoma cell line HS-SY-II xenograft; test: HS-SY-II xenograft model as monotherapy (FIG. 22); assay type: in vivo, nude mice
# Procedure: (§1) A human synovial sarcoma cell line HS-SY-II, which had been cultured in a DMEM containing 10% FBS, and penicillin-streptomycin, was adjusted to a concentration of 1×10^8 cells/mL with 50% Geltrex (Thermo Fisher Scientific) in Hanks' Balanced Salt Solution to prepare a cell suspension. The cell suspension was inoculated in a volume of 100 μL into a subcutaneous part of a right flank of nude mice, 5 weeks of ages (CAnN.Cg-Foxnlnu/CrlCrlj, female, Charles River Laboratories Japan Inc.). Thirty days after cell inoculation (Day 1), the shortest diameter and the longest diameter of a tumor in each mouse were measured by using an electronic digital caliper (Digimatic™ caliper, Mitutoyo Corporation), so as to calculate the volume of the tumor in accordance with the following calculation formulae: […]
# (§2) On the basis of the volumes of tumors obtained on Day 1, the mice were grouped such that averages of the tumor volumes were substantially equal among the groups. The experiment was conducted on groups each consisting of six mice. Compound (1) was dissolved in DMSO and a solution was stored in the freezer before use. Immediately before the administration, the stock solution was diluted with saline. The test compound in saline was intravenously once-weekly administered at 90 μg/kg or 180 μg/kg for 2 weeks (on Day 1 and Day 8).
# [3] = test system: human angiosarcoma CTG-2041 tumor fragments; test: CTG-2041 xenograft as monotherapy (FIG. 17); assay type: in vivo, mice; settings: 100 μg/kg i.v. Day 1 and Day 8
# Procedure: Tumor fragments of human angiosarcoma CTG-2041 were implanted s.c. in the left flank of female mice. Tumor growth was monitored twice a week using digital caliper, so as to calculate the volume of the tumor in accordance with the following calculation formula: […]
# When the volume of tumors reached approximately 200 mm^3, animals are matched by tumor volume into treatment or control groups and dosing initiated on Day 1. Each group was consisted with five mice. Compound (1) was dissolved in DMSO and a solution was stored in the freezer before use. Compound (1) (100 μg/kg) diluted in saline and intravenously injected on Day 1 and Day 8.
# [4] = test system: COLO-704 subcutaneous xenograft; test: COLO-704 xenograft model as monotherapy (FIG. 12); assay type: in vivo, nude mice
# Procedure: as §1, with “ovarian cancer” for “synovial sarcoma”, “COLO-704,” for “HS-SY-II,”, “RPMI-1640” for “DMEM”, “with” for “with 50% Geltrex (Thermo Fisher Scientific) in”, “(CAnN.Cg- Foxnlnu/CrlCrlj,” for “(CAnN.Cg-Foxnlnu/CrlCrlj,”, “Nine” for “Thirty”
# as §2, with “The test compound” for “Compound (1)”, “20 μg/kg, 60 μg/kg,” for “90 μg/kg”
# [5] = test system: U2OS-EB3-AG cells; test: Antiproliferative activity in U2OS-EB3-AG cells; assay type: cell-based
# [6] = test system: microtubule dynamics in U2OS-EB3-AG osteosarcoma cell line; test: Cell-based microtubule dynamics assay; settings: 0.5 nM, around 60 minutes after addition
# Procedure: A cell-based microtubule (MT) dynamics assay was conducted with the U2OS-EB3-AG osteosarcoma cell line, in which the fusion protein of EB3 (a microtubule plus end binding protein) and Azami-Green (EB3-AG) was stably expressed. U2OS-EB3-AG cells were culture in RPMI-1640 medium containing 10% FBS, and penicillin-streptomycin, at 37° C. in a humidified 5% C02 atmosphere. The MT dynamics in the live cells can be visualized as the movement of the comet-like structure of EB3-AG. U2OS-EB3-AG cells plated on glass-base culture plates (EZVIEW plate, AGC Techno Glass, Japan) were treated with Compound (1) at the indicated concentration and the microtubule dynamics were monitored by time-lapse imaging using fluorescent microscope with 60-fold magnification oil- immersed objective lens (BZ-X710, KEYENCE, Japan). Higher magnification views of the boxed areas were shown in inlets. When treated with Compound (1) at 0.5 nM (IC50 value for antiproliferative activity in U20S-EB3-AG cells), the comet-like structures became hard to observe at around 60 minutes after the addition of the compound.
smiles,measurement,setting,value
C=C1C[C@@H]2CC[C@@]34C[C@H]5O[C@H]6[C@@H](O3)[C@H]3O[C@H](CC[C@@H]3O[C@H]6C5O4)CC(=O)O[C@@H]3[C@@H](C)[C@@H]4O[C@@H]5C[C@]6(C[C@@H]7O[C@]8(C[C@H](C)[C@@H]9O[C@H](CN)[C@H](O)C[C@@H]9O8)C[C@H](C)[C@@H]7O6)O[C@@H]5C[C@@H]4O[C@H]3C[C@H]3O[C@@H](CC[C@@H]1O2)C[C@@H](C)C3=C (stereo in doubt) [Compound (1)],IC50,[1],0.11 nM
same,antitumor effect,[2]; 90 μg/kg i.v. Day 1 and Day 8,tumor growth delay
same,antitumor effect,[2]; 180 μg/kg i.v. Day 1 and Day 8,tumor regression
same,antitumor activity,[3],tumor regression
same,antitumor effect,[4]; 60 μg/kg i.v. Day 1 and Day 8,tumor growth delay
same,antitumor effect,[4]; 180 μg/kg i.v. Day 1 and Day 8,tumor regression
same,xenograft tumors on Day 22,[4]; 180 μg/kg i.v. Day 1 and Day 8,completely eradicated the xenograft tumors in all mice
same,IC50,[5],0.5 nM
same,effect on microtubule dynamics (EB3-AG comet-like structures),[6],suppress the MT dynamics

# From patent publication US20240309014A1, “MACROCYCLIC COMPOUNDS AND USES THEREOF” (President and Fellows of Harvard College, priority 2017, published 2024)
